Columns and labels:
Type in all cases: biochemical
FAAH = FAAH (Mus musculus (Mouse), UniProt O08914); assay: In vitro competitive activity-based protein profiling (mouse brain membrane fraction or cell lysates), FAAH band; settings: mouse proteome; for inhibition at 1 µM: read-out: FAAH % Inh 1 μM (mouse); for IC50: competitive ABPP
Outline: (§1)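 Mouse proteome samples (brain membrane fraction or cell lysate, 1.0 mg/mL protein) were pretreated with varying inhibitor concentrations and subsequently probed with fluorophosphonate-rhodamine, each step lasting 30 min at 37° C. Labelled proteins were separated by SDS-PAGE, and band fluorescence was imaged and quantified.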

MAGL = MAGL (Mus musculus (Mouse), UniProt O35678); assay: In vitro competitive activity-based protein profiling (mouse brain membrane fraction or cell lysates), MAGL band; settings: mouse proteome; for inhibition at 1 µM: read-out: MAGL % Inh 1 μM (mouse); for IC50: competitive ABPP
Chain of MAGL (O35678 whole entry): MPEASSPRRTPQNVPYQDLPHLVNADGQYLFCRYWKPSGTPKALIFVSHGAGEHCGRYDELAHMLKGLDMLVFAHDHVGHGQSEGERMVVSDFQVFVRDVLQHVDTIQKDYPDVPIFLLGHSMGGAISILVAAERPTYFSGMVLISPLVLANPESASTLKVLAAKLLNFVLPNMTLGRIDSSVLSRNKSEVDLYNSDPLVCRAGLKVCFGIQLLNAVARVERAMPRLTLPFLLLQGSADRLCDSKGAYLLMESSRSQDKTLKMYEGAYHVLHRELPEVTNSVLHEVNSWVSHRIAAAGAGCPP
Method: In Vitro Competitive Activity-Based Protein Profiling.
Proteomes (mouse brain membrane fraction or cell lysates) (50 μL, 1.0 mg/mL total protein concentration) were preincubated with varying concentrations of inhibitors at 37° C. After 30 min, FP—Rh (1.0 μL, 50 μM in DMSO) was added and the mixture was incubated for another 30 min at 37° C. Reactions were quenched with SDS loading buffer (50 μL-4×) and run on SDS-PAGE.

ABHD6 = ABHD6 (Mus musculus (Mouse), UniProt Q8R2Y0); assay: In vitro competitive activity-based protein profiling (mouse brain membrane fraction or cell lysates), ABHD6 band; settings: mouse proteome; for inhibition at 1 µM: read-out: ABHD6 % Inh 1 μM (mouse); for IC50: competitive ABPP
Chain of ABHD6 (Q8R2Y0 whole entry): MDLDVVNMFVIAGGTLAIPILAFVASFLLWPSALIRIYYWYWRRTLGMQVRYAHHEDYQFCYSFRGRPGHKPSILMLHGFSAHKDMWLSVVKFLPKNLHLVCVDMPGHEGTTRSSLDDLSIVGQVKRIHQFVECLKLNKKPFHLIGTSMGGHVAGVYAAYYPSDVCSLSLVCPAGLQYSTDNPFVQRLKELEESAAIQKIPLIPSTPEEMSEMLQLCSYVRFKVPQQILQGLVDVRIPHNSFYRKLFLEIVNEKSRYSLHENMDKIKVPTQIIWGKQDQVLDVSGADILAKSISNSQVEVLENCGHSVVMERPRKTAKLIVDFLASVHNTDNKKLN
Outline: as §1

Chain of FAAH (O08914 whole entry): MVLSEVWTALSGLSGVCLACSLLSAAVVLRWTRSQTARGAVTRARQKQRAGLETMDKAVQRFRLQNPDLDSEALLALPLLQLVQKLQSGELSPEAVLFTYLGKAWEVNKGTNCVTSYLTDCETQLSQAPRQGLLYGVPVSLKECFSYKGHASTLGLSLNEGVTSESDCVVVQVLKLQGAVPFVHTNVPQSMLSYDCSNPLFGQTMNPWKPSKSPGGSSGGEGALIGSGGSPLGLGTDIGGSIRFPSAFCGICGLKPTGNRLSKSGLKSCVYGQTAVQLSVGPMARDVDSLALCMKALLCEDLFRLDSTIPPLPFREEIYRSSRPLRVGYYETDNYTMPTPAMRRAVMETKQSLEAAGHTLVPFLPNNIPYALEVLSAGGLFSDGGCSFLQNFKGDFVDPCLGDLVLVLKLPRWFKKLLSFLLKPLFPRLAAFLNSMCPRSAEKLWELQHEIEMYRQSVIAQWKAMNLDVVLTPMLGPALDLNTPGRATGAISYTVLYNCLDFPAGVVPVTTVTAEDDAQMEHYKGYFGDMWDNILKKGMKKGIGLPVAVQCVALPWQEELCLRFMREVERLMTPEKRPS

SMILES | inhibition at 1 µM (FAAH) [%] | IC50 (FAAH) [µM] | inhibition at 1 µM (MAGL) [%] | IC50 (MAGL) [µM] | inhibition at 1 µM (ABHD6) [%] | IC50 (ABHD6) [µM]
CN1CCC(Oc2cc(C(F)(F)F)ccc2CN2CCCC23CCN(C(=O)OC(C(F)(F)F)C(F)(F)F)CC3)CC1 [Example 165, 1,1,1,3,3,3-Hexafluoropropan-2-yl 1-(2-(1-methylpiperidin-4-yloxy)-4-(trifluoromethyl)benzyl)-1,8-diazaspiro[4.5]decane-8-carboxylate] | < 25 | > 1 | > 75 | < 0.1 | 25 to 75 | > 1
O=C(COc1cc(C(F)(F)F)ccc1CN1CCCC12CCN(C(=O)OC(C(F)(F)F)C(F)(F)F)CC2)N1CCCC1 [Example 167, 1,1,1,3,3,3-Hexafluoropropan-2-yl 1-(2-(2-oxo-2-(pyrrolidin-1-yl)ethoxy)-4-(trifluoromethyl)benzyl)-1,8-diazaspiro[4.5]decane-8-carboxylate] | < 25 | > 1 | > 75 | < 0.1 | 25 to 75 | > 1
O=C(OC(C(F)(F)F)C(F)(F)F)N1CCC2(CCCN2Cc2ccc(C(F)(F)F)cc2OC2CCOCC2)CC1 [Example 169, 1,1,1,3,3,3-Hexafluoropropan-2-yl 1-(2-(tetrahydro-2H-pyran-4-yloxy)-4-(trifluoromethyl)benzyl)-1,8-diazaspiro[4.5]decane-8-carboxylate] | < 25 | > 1 | > 75 | < 0.1 | 25 to 75 | > 1
O=C(OC(C(F)(F)F)C(F)(F)F)N1CCC2(CCCN2Cc2ccc(C(F)(F)F)cc2Oc2nc3ccccc3s2)CC1 [Example 171, 1,1,1,3,3,3-Hexafluoropropan-2-yl 1-(2-(benzo[d]thiazol-2-yloxy)-4-(trifluoromethyl)benzyl)-1,8-diazaspiro[4.5]decane-8-carboxylate] | < 25 | > 1 | > 75 | 0.1 to 1 | < 25 | > 1
O=C(OC(C(F)(F)F)C(F)(F)F)N1CCC2(CCCN2Cc2ccc(C(F)(F)F)cc2OC2CCS(=O)(=O)CC2)CC1 [Example 175, 1,1,1,3,3,3-Hexafluoropropan-2-yl 1-(2-((1,1-dioxidotetrahydro-2H-thiopyran-4-yl)oxy)-4-(trifluoromethyl)benzyl)-1,8-diazaspiro[4.5]decane-8-carboxylate] | < 25 | > 1 | > 75 | < 0.1 | < 25 | > 1
NC(=O)c1ccc(CN2CCCC23CCN(C(=O)OC(C(F)(F)F)C(F)(F)F)CC3)cc1C(F)(F)F [Example 181, 1,1,1,3,3,3-Hexafluoropropan-2-yl 1-(4-carbamoyl-3-(trifluoromethyl)benzyl)-1,8-diazaspiro[4.5]decane-8-carboxylate] | < 25 | > 1 | > 75 | < 0.1 | 25 to 75 | 0.1 to 1
CC1(C)CC2(CCN(C(=O)OC(C(F)(F)F)C(F)(F)F)CC2)CN1Cc1cccc(N2CCOCC2)c1Cl [Example 185, 1,1,1,3,3,3-hexafluoropropan-2-yl 2-(2-chloro-3-morpholinobenzyl)-3,3-dimethyl-2,8-diazaspiro[4.5]decane-8-carboxylate] | < 25 | > 1 | > 75 | 0.1 to 1 | ≥ 75 | 0.1 to 1
CC1(C)CC2(CCN(C(=O)OC(C(F)(F)F)C(F)(F)F)CC2)CN1Cc1cc(Cl)cc(N2CCOCC2)c1 [Example 186, 1,1,1,3,3,3-Hexafluoropropan-2-yl 2-(3-chloro-5-morpholinobenzyl)-3,3-dimethyl-2,8-diazaspiro[4.5]decane-8-carboxylate] | < 25 | > 1 | > 75 | 0.1 to 1 | 25 to 75 | 0.1 to 1

From patent publication US10030020B2, “Spirocycle compounds and methods of making and using same” (Abide Therapeutics, Inc., priority 2016, dated 2018)
